Experimental data: patent US6716883B1, “Composition useful to treat periodontal disease” (priority 1998, dated 2004)

What was measured:
[1] = target: T1, AhR in SBMC cells (Rattus norvegicus, UniProt P41738); assay: Live whole cell (RSBMC) competitive uptake/binding assay with 3H-TCDD
T1 construct: endogenous in cells; host or cells: rat stromal bone marrow cell line (RSBMC / SBMC)
T1 sequence (P41738 10-853): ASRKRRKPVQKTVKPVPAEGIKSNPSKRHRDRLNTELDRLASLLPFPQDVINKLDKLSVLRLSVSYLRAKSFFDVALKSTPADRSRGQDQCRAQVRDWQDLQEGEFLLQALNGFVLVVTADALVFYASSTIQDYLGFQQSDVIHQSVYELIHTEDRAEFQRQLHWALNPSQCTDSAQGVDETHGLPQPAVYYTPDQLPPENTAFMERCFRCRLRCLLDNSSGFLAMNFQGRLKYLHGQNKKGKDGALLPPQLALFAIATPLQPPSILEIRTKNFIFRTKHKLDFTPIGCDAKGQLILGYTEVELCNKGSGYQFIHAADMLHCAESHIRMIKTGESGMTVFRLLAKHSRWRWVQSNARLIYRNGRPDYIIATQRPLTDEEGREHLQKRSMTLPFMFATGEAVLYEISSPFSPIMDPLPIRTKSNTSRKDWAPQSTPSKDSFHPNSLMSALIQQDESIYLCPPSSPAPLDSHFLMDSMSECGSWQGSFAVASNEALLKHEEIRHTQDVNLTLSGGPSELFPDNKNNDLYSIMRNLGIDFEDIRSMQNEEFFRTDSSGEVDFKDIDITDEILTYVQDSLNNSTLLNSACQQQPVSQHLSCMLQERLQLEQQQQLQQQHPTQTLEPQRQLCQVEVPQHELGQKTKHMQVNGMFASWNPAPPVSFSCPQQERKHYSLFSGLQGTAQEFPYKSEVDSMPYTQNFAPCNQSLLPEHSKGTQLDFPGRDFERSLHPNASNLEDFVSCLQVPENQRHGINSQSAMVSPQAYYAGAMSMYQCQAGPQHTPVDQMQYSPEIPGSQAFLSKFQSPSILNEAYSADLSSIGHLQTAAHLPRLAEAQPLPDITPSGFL
Procedure: The need for preincubation (see below) may also alter competition kinetics in this type of binding assay. Cells were plated at a density of 10,000 per well in Titertek 96-well plates, and left overnight to attach in medium. […] Cells were preincubated with cold drug one hour prior to addition of radiolabeled TCDD (specific activity 33.4 Ci/mmol; Chemsyn Lab, Kansas) (pilot studies having shown that preincubation was required to detect competition). One set of wells was incubated without cold drug to determine total binding. ^3H-TCDD (10,000 cpm/well in a volume of 10 μl) was added and incubated for 4 hours at room temperature. The media were aspirated and the cells washed 4× with 100 μl of PBS. 100 μl of 0.1N sulphuric acid was added and the cells were incubated at 37° C. overnight to break the cells open. 80 μl of the lysate was added to 5 ml of scintillation fluid and counted in a beta counter.

[2] = test system: rat bone marrow cultures; assay: Mineral levels in rat bone marrow cultures treated with BaP; type: cell-based; settings: resveratrol and BaP together
[3] = test system: IL-1 Beta; settings: Casper et al. 1999; cited from earlier work

| Structure (SMILES) | IC50 [1] | concentration reducing 3H-TCDD binding to background levels ([1]; 1 h preincubation with cold drug, 4 h with 3H-TCDD at room temperature) | reversal of BaP effects on mineral levels ([2]; BaP 10^−8M) | reversal of BaP effects on mineral levels ([2]; higher concentrations of BaP) | induction of IL-1 Beta by AhR ligands [3] |
| --- | --- | --- | --- | --- | --- |
| Clc1cc2c(cc1Cl)Oc1cc(Cl)c(Cl)cc1O2 [TCDD, 2,3,7,8-tetrachlorodibenzo-p-dioxin] | ~3.7 nM | 33 nM | – | – | – |
| Oc1ccc(C=Cc2cc(O)cc(O)c2)cc1 [resveratrol, 3,5,4′-trihydroxystilbene] | – | – | complete reversal | partial reversal | prevent the induction |
